Measurements taken from ChEMBL document CHEMBL1121759, “Aporphines, 36. Dopamine receptor interactions of trihydroxyaporphines. Synthesis, radioreceptor binding, and striatal adenylate cyclase stimulation of 2,10,11-trihydroxyaporphines in comparison with other hydroxylated aporphines” (J Med Chem, 1981).
Calls of active or inactive are those of the source. The rule behind the calls is not given here.

Target: T1, Adenylate cyclase (Rattus norvegicus) (UniProt D4A3N4+P26770+Q04400+P26769+Q03343+P40146+Q8CFM9+P21932)
Assay: Dopamine sensitive adenylate cyclase activity (stimulation) in homogenates of rat brain striatal tissue was assessed at 50 uM of compound; Inhibitis the cyclase activity
Type: tissue-based

Row | SMILES | Stimulation
1 | Oc1ccc2c(c1O)-c1cccc3c1[C@@H](C2)N(CCCl)CC3 | inactive

Target: T1, Adenylate cyclase (Rattus norvegicus)
Assay: Dopamine sensitive adenylate cyclase activity (stimulation) in homogenates of rat brain striatal tissue was assessed at 50 uM of compound; +++ = 61-80% incresae of cAMP above basal activity
Type: tissue-based

Row | SMILES | Stimulation
2 | CCCN1CCc2cccc3c2[C@H]1Cc1ccc(O)c(O)c1-3 (stereo in doubt; 1b) | Partially active
3 | CN1CCc2cccc3c2[C@H]1Cc1ccc(O)c(O)c1-3 | Partially active

Target: T1, Adenylate cyclase (Rattus norvegicus)
Assay: Dopamine sensitive adenylate cyclase activity (stimulation) in homogenates of rat brain striatal tissue was assessed at 50 uM; + = <40% increase of cAMP above basal activity
Type: tissue-based

Row | SMILES | Stimulation
4 | OCCN1CCc2cccc3c2[C@H]1Cc1ccc(O)c(O)c1-3 | Partially active
5 | Oc1cc2c3c(c1)-c1c(ccc(O)c1O)C[C@H]3NCC2 | Partially active
6 | CCN1CCc2cc(O)cc3c2[C@H]1Cc1ccc(O)c(O)c1-3 | Partially active
7 | C=CCN1CCc2cc(O)cc3c2[C@H]1Cc1ccc(O)c(O)c1-3 | Partially active
8 | CN1CCc2cccc3c2C1Cc1ccc(O)cc1-3 (stereo not drawn) | Partially active
9 | CCCN1CCc2cc(O)cc3c2[C@H]1Cc1ccc(O)c(O)c1-3 | Partially active
10 | C#CCN1CCc2cc(O)cc3c2[C@H]1Cc1ccc(O)c(O)c1-3 | Partially active
11 | CCCN1CCc2cccc3c2[C@H]1Cc1cccc(O)c1-3 | Partially active

Target: T1, Adenylate cyclase (Rattus norvegicus)
Assay: Dopamine sensitive adenylate cyclase activity (stimulation) in homogenates of rat brain striatal tissue was assessed at 50 uM of compound; ++ = 41-60% incresae of cAMP above basal activity
Type: tissue-based

Row | SMILES | Stimulation
12 | CCCN1CCc2cccc3c2[C@H]1Cc1ccc(O)c(O)c1-3 (stereo in doubt; 1c) | Active
13 | CN1CCc2cc(O)cc3c2[C@H]1Cc1ccc(O)c(O)c1-3 | Active
